Test results as given in patent US12358920B2, “Substituted pyrrolo[2,3-d]pyrimidines as selective CDK 4/6 inhibitors” (LUNELLA BIOTECH, INC., priority 2019, dated 2025).

Columns and labels:
hTERT-BJ1 = test: Hoechst-based 2D-cell viability assay, hTERT-BJ1 monolayer; design: species or system human; details: for toxicity in the non-tumoral cell line hTERT-BJ1: up to the concentration of 90 μM
Source text: As used in the tables, “IC50 (MCF7 mammosphere)” refers to the half maximal inhibitory concentration in the 3D-mammosphere assay, using the ER+ breast cancer cell line, MCF7. The term “IC50 (MCF7 monolayer)” refers to the half maximal inhibitory concentration in the 2D-cell viability assay, using the ER+ breast cancer cell line, MCF7. The term “IC50 (BJ1 monolayer)” refers to the half maximal inhibitory concentration in the 2D-cell viability assay, using the immortalized non-tumoral fibroblast cell line, hTERT-BJ1. The term “SI (mammosphere/monolayer MCF7)” refers to the mammosphere selectivity index, a ratio between IC50 values comparing the biological activity in the 3D and 2D assays against MCF7. The term “SI (BJ1/MCF7 monolayer)” refers to the cancer selectivity index, a ratio between IC50 values comparing the biological activity in the cell viability assays against MCF7 and hTERT-BJ1. With respect to cell culture and reagents, the human breast adenocarcinoma cell line (MCF-7) was from the American Type Culture Collection (ATCC). hTERT-BJ1 cells were from Clontech, Inc. MCF-7 and hTERT-BJ1 cells were grown in DMEM supplemented with 10% fetal bovine serum, GlutaMAX and 1% penicillin-streptomycin and incubated at 37C in a humidified 5% CO2 incubator. The medium was changed 2-3 times/week. A Hoechst-based viability assay was used to characterize the selectivity of compounds according to the present approach, for the preferential targeting of cancer cells. Briefly, MCF7 cell monolayers were treated with a compound at concentrations ranging from 1 μM to 100 μM, for a period of one day. Cell viability was assessed using Hoechst 33342, a nuclear dye that stains DNA in live cells. The viability of normal human fibroblasts (hTERT-BJ1) treated with the compounds described herein was also assessed in parallel. Quantitation was performed with a plate-reader.

MCF7 [1] = test: Hoechst-based 2D-cell viability assay, MCF7 monolayer; design: species or system human
Source text: As used in the tables, “IC50 (MCF7 mammosphere)” refers to the half maximal inhibitory concentration in the 3D-mammosphere assay, using the ER+ breast cancer cell line, MCF7. The term “IC50 (MCF7 monolayer)” refers to the half maximal inhibitory concentration in the 2D-cell viability assay, using the ER+ breast cancer cell line, MCF7. The term “IC50 (BJ1 monolayer)” refers to the half maximal inhibitory concentration in the 2D-cell viability assay, using the immortalized non-tumoral fibroblast cell line, hTERT-BJ1. The term “SI (mammosphere/monolayer MCF7)” refers to the mammosphere selectivity index, a ratio between IC50 values comparing the biological activity in the 3D and 2D assays against MCF7. The term “SI (BJ1/MCF7 monolayer)” refers to the cancer selectivity index, a ratio between IC50 values comparing the biological activity in the cell viability assays against MCF7 and hTERT-BJ1. […] Cell viability was assessed using Hoechst 33342, a nuclear dye that stains DNA in live cells. The viability of normal human fibroblasts (hTERT-BJ1) treated with the compounds described herein was also assessed in parallel. Quantitation was performed with a plate-reader.

MCF7 [2] = test: Mammosphere formation assay (3D-mammosphere assay); assay type: cell-based, human; details: for inhibition of MCF7 cells in the mammosphere assay compared to parent compound: concentrations from 1 μM to 100 μM; for SI (mammosphere/monolayer MCF7): mammosphere selectivity index, ratio between IC50 values in the 3D and 2D assays against MCF7
Source text: As used in the tables, “IC50 (MCF7 mammosphere)” refers to the half maximal inhibitory concentration in the 3D-mammosphere assay, using the ER+ breast cancer cell line, MCF7. The term “IC50 (MCF7 monolayer)” refers to the half maximal inhibitory concentration in the 2D-cell viability assay, using the ER+ breast cancer cell line, MCF7. The term “IC50 (BJ1 monolayer)” refers to the half maximal inhibitory concentration in the 2D-cell viability assay, using the immortalized non-tumoral fibroblast cell line, hTERT-BJ1. The term “SI (mammosphere/monolayer MCF7)” refers to the mammosphere selectivity index, a ratio between IC50 values comparing the biological activity in the 3D and 2D assays against MCF7. The term “SI (BJ1/MCF7 monolayer)” refers to the cancer selectivity index, a ratio between IC50 values comparing the biological activity in the cell viability assays against MCF7 and hTERT-BJ1.
FIGS. 1-3 are dose-response curves for various compounds described herein, using the mammosphere assay. The assay was performed using the MCF7 cell line. The curves are plotted as a mean of two independent experiments, and the standard deviation for each point is represented by vertical bars. The inhibition percentage is shown as a function of the log of the concentration (μM). […] Similar effects are expected for compounds having the general formula [1D].
With respect to cell culture and reagents, the human breast adenocarcinoma cell line (MCF-7) was from the American Type Culture Collection (ATCC). hTERT-BJ1 cells were from Clontech, Inc. MCF-7 and hTERT-BJ1 cells were grown in DMEM supplemented with 10% fetal bovine serum, GlutaMAX and 1% penicillin-streptomycin and incubated at 37C in a humidified 5% CO2 incubator. The medium was changed 2-3 times/week.
Mammosphere formation assay: A single cell suspension was prepared using enzymatic (lx Trypsin-EDTA, Sigma Aldrich, cat. #T3924), and manual disaggregation (25 gauge needle). Five thousand cells were plated with in mammosphere medium (DMEM-F12/B27/20 ng/ml EGF/PenStrep), under non-adherent conditions, in six wells plates coated with 2-hydroxyethylmethacrylate (poly-HEMA, Sigma, cat. #P3932). Cells were grown for 5 days and maintained in a humidified incubator at 37° C. at an atmospheric pressure in 5% (v/v) carbon dioxide/air. After 5 days, 3D spheroids with a diameter greater than 50 μm were counted using a microscope, fitted with a graticule eye-piece, and the percentage of cells which formed spheroids was calculated and normalized to one (1=100% MFE; mammosphere forming efficiency). Mammosphere assays were performed in triplicate and repeated three times independently.

## CCCCCCCCCCCCCC(=O)N1CCN(c2ccc(Nc3ncc4cc(C(=O)N(C)C)n(C5CCCC5)c4n3)nc2)CC1 [Compound [1C], 7-cyclopentyl-N,N-dimethyl-2-[[5-(4-tetradecanoylpiperazin-1-yl)-2-pyridyl]amino]pyrrolo[2,3-d]pyrimidine-6-carboxamide]
hTERT-BJ1
  toxicity in the non-tumoral cell line hTERT-BJ1: non-toxic
MCF7 [1]; Hoechst staining assay, MCF7, each concentration
  potency against MCF7 cells compared to parent compound (dose-response curves, FIG. 4): more potent
MCF7 [2]; IC50 ratio vs. Ribociclib
  improvement in potency in the 3D-mammosphere assay compared to the parent compound: 7 fold
MCF7 [2]
  inhibition of MCF7 cells in the mammosphere assay compared to parent compound: remarkably improved inhibition

## CCCCCCCCCCCCCC(=O)N1CCN(c2ccc(Nc3ncc4c(C)c(C(C)=O)c(=O)n(C5CCCC5)c4n3)nc2)CC1 [Compound [2C], 6-acetyl-8-cyclopentyl-5-methyl-2-[[5-(4-tetradecanoylpiperazin-1-yl)-2-pyridyl]amino]pyrido[2,3-d]pyrimidin-7-one]
hTERT-BJ1
  toxicity in the non-tumoral cell line hTERT-BJ1: non-toxic
MCF7 [1]; MCF7 monolayer, up to a concentration of 30 μM
  toxicity in the 2D-cell viability assay: non-toxic
MCF7 [2]
  inhibition of MCF7 cells in the mammosphere assay compared to parent compound: remarkably improved inhibition

## CCN1CCN(Cc2ccc(Nc3ncc(F)c(-c4cc(F)c5nc(C)n(C(C)C)c5c4)n3)nc2)CC1 [Abemaciclib, N-[5-[(4-ethylpiperazin-1-yl)methyl]pyridin-2-yl]-5-fluoro-4-(7-fluoro-2-methyl-3-propan-2-ylbenzimidazol-5-yl)pyrimidin-2-amine, reference compound]
hTERT-BJ1; Homo sapiens, Table 3, unit inferred, 2D-cell viability assay, hTERT-BJ1
  IC50: 30 ± 6 µM
MCF7 [2]
  SI (mammosphere/monolayer MCF7): >250

## CC(=O)c1c(C)c2cnc(Nc3ccc(N4CCNCC4)cn3)nc2n(C2CCCC2)c1=O [Palbociclib, 6-acetyl-8-cyclopentyl-5-methyl-2-(5-piperazin-1-yl-pyridin-2-ylamino)-8H-pyrido[2,3-d]pyrimidin-7-one, reference compound]
hTERT-BJ1
  toxicity in the non-tumoral cell line hTERT-BJ1: non-toxic
MCF7 [2]
  SI (mammosphere/monolayer MCF7): non-selective

## CN(C)C(=O)c1cc2cnc(Nc3ccc(N4CCNCC4)cn3)nc2n1C1CCCC1 [Ribociclib, 7-cyclopentyl-N,N-dimethyl-2-[(5-piperazin-1-ylpyridin-2-yl)amino]pyrrolo[2,3-d]pyrimidine-6-carboxamide]
hTERT-BJ1; Hoechst staining assay, hTERT-BJ1
  potency on hTERT-BJ1 compared to Compound [1C] (dose-response curves, FIG. 7): more potent at most concentrations tested
hTERT-BJ1
  toxicity in the non-tumoral cell line hTERT-BJ1: non-toxic
